In patent US20250188092A1, “RIFAMYCIN ANALOGS” (THE REGENTS OF THE UNIVERSITY OF MICHIGAN, priority 2021, published 2025):
Converted amounts (≈) assume the structure as drawn.

Experiments:
[1] = system: VERO cells (ATCC CRL-81); test: Vero cell toxicity; type: cell-based; conditions: Chlorocebus sabaeus, Vero; 72 hours exposure
Method: Cytotoxicity for a mammalian cell line was determined by exposing VERO cells (ATCC CRL-81) to serial dilutions of test compounds for 72 hours, followed by addition of resazurin and measurement of fluorescence after 4 hours incubation (Choules, et al., Antimnicrob. Agents Chemother. 2019, 63, e02204-02218).

[2] = system: DPX2 cells; conditions: for DPX2 Viability @ 6.25 μM: 24 h; for DPX2 Viability @ 25 μM: human
[3] = system: MTB H37Rv ATCC 27294; test: MIC, microplate Alamar Blue assay (MABA); type: cell-based, Mycobacterium tuberculosis
[4] = Mycobacterium tuberculosis, MTB H37Rv ATCC 27294, microplate Alamar Blue assay, lowest concentration giving ≥90% reduction in fluorescence

| SMILES | IC50 [1] [µM] | DPX2 Viability @ 6.25 μM [2] [%] | DPX2 Viability @ 25 μM [2] [%] | MIC90 MABA Rel to RMP [3] | MIC ([3]; Mycobacterium tuberculosis, MTB H37Rv ATCC 27294, microplate Alamar Blue assay, lowest concentration giving ≥90% reduction in fluorescence, read-out: MIC90 MABA) [µM] | MIC90 [3, 4] [µM] |
| --- | --- | --- | --- | --- | --- | --- |
| CO[C@H]1/C=C/O[C@@]2(C)Oc3c(C)c(O)c4c(=O)c(c5oc6cc(N7CCC(C(=O)O)CC7)cc(OCc7ccc(CN8CCOCC8)cc7)c6nc-5c4c3C2=O)NC(=O)/C(C)=C\C=C\[C@H](C)[C@H](O)[C@@H](C)[C@@H](O)[C@@H](C)[C@H](OC(C)=O)[C@@H]1C [Compound 17k] | > 10 | 131 | 34 | 11 | 0.3 (≈ 0.335 µg/mL) | – |
| CO[C@H]1/C=C/O[C@@]2(C)Oc3c(C)c(O)c4c(=O)c(c5oc6cc(N7CCN(C(=O)c8ccccc8)CC7)cc(OCc7ccc(CN8CCOCC8)cc7)c6nc-5c4c3C2=O)NC(=O)/C(C)=C\C=C\[C@H](C)[C@H](O)[C@@H](C)[C@@H](O)[C@@H](C)[C@H](OC(C)=O)[C@@H]1C [Compound 17m, (7S,9E,11S,12R,13S,14R,15R,16R,17S,18S,19E,21Z)-30-(4-benzoylpiperazin-1-yl)-2,15,17-trihydroxy-1-methoxy-3,7,12,14,16,18,22-heptamethyl-32-{[4-(morpholin-4-ylmethyl)phenyl]methoxy}-6,23,37-trioxo-8,27,38-trioxa-24,34-diazahexacyclo-[23.11.1.1^4,7.0^5,36.0^26,35.0^28,33]octatriaconta-1,3,5(36)9,19,21,25,28,30,32,34-undecaen-13-yl acetate] | > 10 | 89 | 78 | 0.34 | – | 0.017 |
| CO[C@H]1/C=C/O[C@@]2(C)Oc3c(C)c(O)c4c(=O)c(c5oc6cc(N7CCN(C(=O)c8ccncc8)CC7)cc(OCc7ccc(CN8CCOCC8)cc7)c6nc-5c4c3C2=O)NC(=O)/C(C)=C\C=C\[C@H](C)[C@H](O)[C@@H](C)[C@@H](O)[C@@H](C)[C@H](OC(C)=O)[C@@H]1C [Compound 17n, 7S,9E,11S,12R,13S,14R,15R,16R,17S,18S,19E,21Z)-2,15,17-trihydroxy-11-methoxy-3,7,12,14,16,18,22-heptamethyl-32-{[4-(morpholin-4-ylmethyl)phenyl]methoxy}-6,23,37-trioxo-30-{4-[(pyridin-4-yl)carbonyl]piperazin-1-yl}-8,27,38-trioxa-24,34-diazahexacyclo[23.11.1.1^4,7.0^5,36.0^26,35.0^28,33]octatriaconta-1,3,5(36)9,19,21,25,28,30,32,34-undecaen-13-yl acetate] | > 10 | 102 | 98 | 1.5 | – | 0.073 |
| CO[C@H]1/C=C/O[C@@]2(C)Oc3c(C)c(O)c4c(=O)c(c5oc6cc(N7CCOC(CN(C)C)C7)cc(OCc7ccc(CN8CCOCC8)cc7)c6nc-5c4c3C2=O)NC(=O)/C(C)=C\C=C\[C@H](C)[C@H](O)[C@@H](C)[C@@H](O)[C@@H](C)[C@H](OC(C)=O)[C@@H]1C (stereo partly drawn) [Compound 17o, (7S,9E,11S,12R,13S,14R,15R,16R,17S,18S,19E,21Z)-30-{2-[(dimethylamino)methyl]morpholin-4-yl}-2,15,17-trihydroxy-11-methoxy-3,7,12,14,16,18,22-heptamethyl-32-{[4-(morpholin-4-ylmethyl)phenyl]methoxy}-6,23,37-trioxo-8,27,38-trioxa-24,34-diazahexacyclo[23.11.1.1^4,7.0^5,36.0^26,35.0^28,33]octatriaconta-1,3,5(36)9,19,21,25,28,30,32,34-undecaen-13-yl acetate] | > 10 | 96 | 42 | 1.1 | – | 0.055 |
| CO[C@H]1/C=C/O[C@@]2(C)Oc3c(C)c(O)c4c(=O)c(c5oc6cc(N7CCN(CC(C)C)CC7)cc(OCc7ccc(CN8CCN(C)CC8)cc7)c6nc-5c4c3C2=O)NC(=O)/C(C)=C\C=C\[C@H](C)[C@H](O)[C@@H](C)[C@@H](O)[C@@H](C)[C@H](OC(C)=O)[C@@H]1C [Compound 17p, (7S,9E,11S,12R,13S,14R,15R,16R,17S,18S,19E,21Z)-2,15,17-trihydroxy-11-methoxy-3,7,12,14,16,18,22-heptamethyl-32-({4-[(4-methylpiperazin-1-yl)methyl]phenyl}methoxy)-30-[4-(2-methylpropyl)piperazin-1-yl]-6,23,37-trioxo-8,27,38-trioxa-24,34-diazahexacyclo-[23.11.1.1^4,7.0^5,36.0^26,35.0^28,33]octatriaconta-1,3,5(36)9,19,21,25,28,30,32,34-undecaen-13-yl acetate] | > 10 | 116 | 80 | – | – | 0.0094 |
| CO[C@H]1/C=C/O[C@@]2(C)Oc3c(C)c(O)c4c(=O)c(c5oc6cc(N7CCC(C(=O)O)CC7)cc(OCc7ccc(CN8CCN(C)CC8)cc7)c6nc-5c4c3C2=O)NC(=O)/C(C)=C\C=C\[C@H](C)[C@H](O)[C@@H](C)[C@@H](O)[C@@H](C)[C@H](OC(C)=O)[C@@H]1C [Compound 17q, 1-[(7S,9E,11S,12R,13S,14R,15R,16R,17S,18S,19E,21Z)-13-(acetyloxy)-2,15,17-trihydroxy-11-methoxy-3,7,12,14,16,18,22-heptamethyl-32-({4-[(4-methylpiperazin-1-yl)methyl]phenyl}methoxy)-6,23,37-trioxo-8,27,38-trioxa-24,34-diazahexacyclo-[23.11.1.1^4,7.0^5,36.0^26,35.0^28,33]-octatriaconta-1,3,5(36)9,19,21,25,28,30,32,34-undecaen-30-yl]piperidine-4-carboxylic acid] | > 10 | 100 | 98 | 16 | – | 0.415 (≈ 0.469 µg/mL) |
| CO[C@H]1/C=C/O[C@@]2(C)Oc3c(C)c(O)c4c(=O)c(c5oc6cc(N7CCN(C(=O)c8ccc9occc9c8)CC7)cc(OCc7ccc(CN8CCOCC8)cc7)c6nc-5c4c3C2=O)NC(=O)/C(C)=C\C=C\[C@H](C)[C@H](O)[C@@H](C)[C@@H](O)[C@@H](C)[C@H](OC(C)=O)[C@@H]1C [Compound 17s, (7S,9E,11S,12R,13S,14R,15R,16R,17S,18S,19E,21Z)-30-{4-[(1-benzofuran-5-yl)carbonyl]piperazin-1-yl}-2,15,17-trihydroxy-11-methoxy-3,7,12,14,16,18,22-heptamethyl-32-{[4-(morpholin-4-ylmethyl)phenyl]methoxy}-6,23,37-trioxo-8,27,38-trioxa-24,34-diazahexacyclo[23.11.1.1^4,7.0^5,36.0^26,35.0^28,33]octatriaconta-1,3,5(36)9,19,21,25,28,30,32,34-undecaen-13-yl acetate] | > 10 | 102 | 86 | 0.36 | – | 0.018 |
| CO[C@H]1/C=C/O[C@@]2(C)Oc3c(C)c(O)c4c(=O)c(c5oc6cc(N7CCCC(C(=O)Nc8ccc(Cl)cc8)C7)cc(C)c6nc-5c4c3C2=O)NC(=O)/C(C)=C\C=C\[C@H](C)[C@H](O)[C@@H](C)[C@@H](O)[C@@H](C)[C@H](OC(C)=O)[C@@H]1C (stereo partly drawn) [Compound 28, (7S,9E,11S,12R,13S,14R,15R,16R,17S,1S,19E,21Z)-30-{3-[(4-Chlorophenyl)carbamoyl]piperidin-1-yl}-2,15,17-trihydroxy-11-methoxy-3,7,12,14,16,18,22,32-octamethyl-6,23,37-trioxo-8,27,38-trioxa-24,34-diazahexacyclo[23.11.1.1^4,7.0^5,36.0^26,35.0^28,33]octatriaconta-1(36)2,4,9,19,21,25,28,30,32,34-undecaen-13-yl acetate] | > 10 | 110 | 109 | 0.16 | – | 0.0044 |
| CO[C@H]1/C=C/O[C@@]2(C)Oc3c(C)c(O)c4c(=O)c(c5oc6cc(N7CCN(C(=O)c8cccc(-c9ccccn9)c8)CC7)cc(C)c6nc-5c4c3C2=O)NC(=O)/C(C)=C\C=C\[C@H](C)[C@H](O)[C@@H](C)[C@@H](O)[C@@H](C)[C@H](OC(C)=O)[C@@H]1C [Compound 29b, (7S,9E,11S,12R,13S,14R,15R,16R,17S,18S,19E,21Z)-2,15,17-Trihydroxy-11-methoxy-3,7,12,14,16,18,22,32-octamethyl-6,23,37-trioxo-30-(4-[3-(pyridin-2-yl)benzoyl]piperazin-1-yl)-8,27,38-trioxa-24,34-diazahexacyclo-[23.11.1.1^4,7.0^5,36.0^26,35.0^28,33]octatriaconta-1(36)2,4,9,19,21,25,28,30,32,34-undecaen-13-yl acetate] | > 10 | 136 | 128 | 0.32 | – | 0.0087 |
| CO[C@H]1/C=C/O[C@@]2(C)Oc3c(C)c(O)c4c(=O)c(c5oc6cc(N7CCN(C(=O)c8ccc9occc9c8)CC7)cc(C)c6nc-5c4c3C2=O)NC(=O)/C(C)=C\C=C\[C@H](C)[C@H](O)[C@@H](C)[C@@H](O)[C@@H](C)[C@H](OC(C)=O)[C@@H]1C [Compound 29c, (7S,9E,11S,12R,13S,14R,15R,16R,17S,18S,19E,21Z)-30-[4-(1-Benzofuran-5-carbonyl)piperazin-1-yl]-2,15,17-trihydroxy-11-methoxy-3,7,12,14,16,18,22,32-octamethyl-6,23,37-trioxo-8,27,38-trioxa-24,34-diazahexacyclo[23.11.1.1^4,7.0^5,36.0^26,35.0^28,33]octatriaconta-(36)2,4,9,19,21,25,28,30,32,34-undecaen-13-yl acetate] | > 10 | 121 | 114 | 0.18 | – | 0.0049 |
